Experiment [1] concerns Mac-1 and LFA-1-mediated neutrophil binding to immobilized ICAM-1. The experiment is described as follows: Neutrophil (Mac-1 and LFA-1)/ICAM-1 cell-based screening assay. The following applies: human neutrophils. The procedure: Both Mac-1 and LFA-1 are expressed on the cell surface of neutrophils. The ability of antagonists to inhibit Mac-1 and LFA-1-mediated neutrophil binding to immobilized ICAM-1 was quantitated by a cell based assay. Typically, fusion protein consisting of the entire extracellular domain of human ICAM-1 and the Fc domain of human IgG (5dICAM-Ig) was coated onto 96 well microtiter plates (1 μg in 100 μL TBS) overnight at 4° C. The plates were then blocked with 150 μL of 10% PVP in TBS for 1 h at 37° C. Plates were washed 3 times (150 μL each) with TBS. Human neutrophils were purified from whole blood from healthy volunteers using LSM (ICN). Cells (8×10^6/mL) were fluorescently labeled with 6-carboxyfluorescein (100 μg/mL) for 40 min in IMDM/1 mM MgCl2/1.2 mM CaCl2 as described in Example 287. Cells (8×10^6/mL) were stimulated with f-Met-Leu-Phe (10 μM) for 5 min at room temperature just prior to being used in the assay, and diluted to 2×10^6 cells/mL with RPMI/0.05% BSA/0.2 mM MnCl2. Stock solutions (10 mM) of test compounds were diluted to 2.5 mM with DMSO. A series of 1:4 dilutions in DMSO were performed to achieve a concentration range of 38.2 nM-2.5 mM. Each sample was further diluted 50-fold with RPMI/0.05% BSA/0.2 mM MnCl2. Equal volumes of labeled cells were then added to assay tubes containing diluted compound. Final concentrations of compound tested in the assay ranged from 0.38 nM-25 μM with a cell concentration of 1×10^6 per mL. Cells were incubated for 10 min at 37° C. with gentle shaking, then dispensed (100 μL per well) onto ICAM-1 coated plates and incubated for 30 min at 37° C./5% CO2. Unbound cells were washed and plates were read on a Cytofluor™ 2300 (Millipore) as described in Example 384.

Another experiment concerns C57BI/6 mice. Briefly: Delayed type hypersensitivity in mice (mBSA paw swelling). The class given is in vivo. Particulars: compared to distilled water pumps. The procedure:
Sensitization: On day 0, adult female C57BI/6 mice (20-25 g) received 50 μl each of a 1:1 mixture of 10 mg/ml methylated bovine serum albumin (mBSA) in phosphate buffered saline (PBS) and complete Freund's adjuvant (CFA) intradermally at two sites on shaved bellies (total volume 100 μl per mouse). Control mice received an equal volume of a PBS/CFA mixture (unsensitized).
Challenge: On day 7, the mice received 20 μl I of 5 mg/ml mBSA in PBS injected into the right hind paw. The contralateral left paw of each mouse was injected with an identical volume of PBS. After 24 hours, the paw swelling of both the hind feet of all mice was measured with microcalipers. To determine the paw swelling response, measurements of the left paw were subtracted from that of the right paw for each individual mouse.
At the time of challenge, anaesthetized mice were implanted on their backs with Alzet osmotic minipumps which delivered a constant volume per hour of the inhibitors (e.g. Example 226) subcutaneously. The pumps delivered a volume 200 μl over a period of 1 day. Different doses of the compounds were tested viz. 850, 250 and 85 mg/kg/day. The inhibitors were formulated in distilled water. Control mice received pumps containing distilled water. For antibody treatment groups, mice received 200 μg of anti-mouse LFA-1 (Mi7), anti-mouse Mac-1 (M1/70) or control rat IgG intraperitoneally on the day of challenge.
In table 10, the swelling response in antibody-treated animals is compared to the swelling response in rat IgG-treated animals. The swelling response in compound-treated animals is compared to the swelling-response in mice that had received pumps containing distilled water

The next experiment deals with BALB/c mice. Briefly: Croton oil-induced dermatitis in mice (ear swelling). The format is in vivo. The following applies: compared to distilled water pumps. The method, then: Adult female BALB/c mice (20-25 g) received 10 μl of 20 mg/ml of croton oil in 80% acetone:20% olive oil vehicle on each side of the right ear (total of 20 μl per mouse). All the mice received a similar volume of the acetone/olive oil vehicle on the contralateral left ear. Negative control mice received vehicle on both ears. Six hours thereafter, the ear swelling on both ears was measured with microcalipers. The ear swelling response was determined by subtraction of the swelling measurements of the left ear from that of the right ear for each individual mouse.
Inhibitors were administered to mice via 3 day Alzet osmotic minipumps. Pumps containing different concentrations of the inhibitors were implanted on the backs of anaesthetized mice 2 days prior to croton oil application. Additional mice received an equal volume of distilled water in pumps. For mice receiving antibodies, anti-CD18 antibody (HB226) or control rat IgG were administered i.p. at 200 μg per mouse 18 hours prior to croton oil application.
In table 11, the swelling response in antibody-treated animals is compared to the swelling response in rat IgG-treated animals. The swelling response in compound-treated animals is compared to the swelling-response in mice that had received pumps containing distilled water

The structures appear in SMILES notation.

Here are results for 20 compounds from patent publication US20040006236A1, “Diaminopropionic acid derivatives” (priority 1999, published 2004).

In general, IC50 refers to the midpoint of a concentration-inhibition curve. High values mean a need for much substance, low ones inhibition by little substance. In experiment [1], `O=C(NCc1cccc(O)c1)c1cc(Cl)c(C(=O)N[C@@H](CNC(=O)c2cc(O)cc(O)c2)C(=O)O)c(Cl)c1` [Example 345, N-[2,6-dichloro-4-[[[(3-hydroxyphenyl)methyl]amino]carbonyl]benzoyl]-3-(3,5-dihydroxybenzoylamino)-L-alanine] yielded an IC50 of 0.1 nM. `O=C(NC[C@H](NC(=O)c1c(F)cccc1Cl)C(=O)O)c1ccc2[nH]nnc2c1` [Example 226]: the “Percentage inhibition of paw swelling in response to challenge with methylated bovine serum albumin” value in the experiment on C57BI/6 mice (1 μM, s.c. osmotic minipump) was −2%; with C57BI/6 mice (3 μM circulating serum level (250 mg/kg/day, s.c. osmotic minipump)), 52%; with C57BI/6 mice (9 μM circulating serum level (850 mg/kg/day, s.c. osmotic minipump)) it was 77%. The “Percentage inhibition of ear swelling in response to croton oil application” value turned out to be 8% in the experiment on BALB/c mice (1 μM, osmotic minipump); 48% in the experiment on BALB/c mice (2 μM circulating serum level (64 mg/kg/day, osmotic minipump)); 62% with BALB/c mice (4 μM circulating serum level (250 mg/kg/day, osmotic minipump)). With `O=C(NCc1cccc(O)c1)c1cc(Cl)c(C(=O)N[C@@H](CNC(=O)c2cc(F)cc(F)c2)C(=O)O)c(Cl)c1` [Example 344, N-[2,6-dichloro-4-[[[(3-hydroxyphenyl)methyl]amino]carbonyl]benzoyl]-3-[(3,5-difluorobenzoyl)amino]-L-alanine], the IC50 in experiment [1] came to 1.7 nM.

Consider `Cc1cc(C(=O)NCc2cccc(O)c2)cc(C)c1C(=O)N[C@@H](CNC(=O)c1cc(F)cc(F)c1)C(=O)O` [Example 337, N-[2,6-dimethyl-4-[[[(3-hydroxyphenyl)methyl]amino]carbonyl]benzoyl]-3-(3,5-difluorobenzoylamino)-L-alanine], for which, in experiment [1], the IC50 was 12 nM. Consider `O=C(NCc1cccc2[nH]ncc12)c1ccc(C(=O)N[C@@H](CNC(=O)c2cccs2)C(=O)O)c(Cl)c1` [Example 327, N-[2-chloro-4-[[[(1H-indazol-4-yl)methyl]amino]carbonyl]benzoyl]-3-(thiophene-2-carbonyl)amino-L-alanine], for which the IC50 in experiment [1] was found to be 20 nM. The same measure, in the same setting: then `O=C(NCc1cccc(O)c1)c1cc(Cl)c(C(=O)N[C@@H](CNC(=O)c2cccs2)C(=O)O)c(Cl)c1` [Example 342, N-[2,6-dichloro-4-[[[(3-hydroxyphenyl)methyl]amino]carbonyl]benzoyl]-3-[(thiophene-2-carbonyl)amino]-L-alanine], with 2.3 nM; and `O=C(NCc1cccc(O)c1)c1ccc(C(=O)N[C@@H](CNC(=O)c2cc(F)cc(F)c2)C(=O)O)c(Cl)c1` [Example 252, N-[2-chloro-4-[[[(3-hydroxyphenyl)methyl]amino]carbonyl]benzoyl]-3-(3,5-difluorobenzoyl)amino-L-alanine], with 34 nM.

The compound `Cc1cc(C(=O)NCc2cccc(O)c2)cc(Cl)c1C(=O)N[C@@H](CNC(=O)c1cccs1)C(=O)O` [Example 338, N-[2-chloro-4-[[[(3-hydroxyphenyl)methyl]amino]carbonyl]-6-methylbenzoyl]-3-[(thiophene-2-carbonyl)amino]-L-alanine] registered an IC50 in experiment [1] of 3.9 nM. Compound `O=C(NCc1cccc(O)c1)c1ccc(C(=O)N[C@@H](CNC(=O)c2cccs2)C(=O)O)c(Cl)c1` [Example 303, N-[2-chloro-4-[[[(3-hydroxyphenyl)methyl]amino]carbonyl]benzoyl]-3-(thiophene-2-carbonyl)amino-L-alanine] showed an IC50 in experiment [1] of 16 nM.

In experiment [1], `O=C(NCc1cccc(O)c1)c1ccc(C(=O)N[C@@H](CNC(=O)c2ccoc2)C(=O)O)c(Cl)c1` [Example 259, N-[2-chloro-4-[[[(3-hydroxyphenyl)methyl]amino]carbonyl]benzoyl]-3-(furan-3-carbonyl)amino-L-alanine] returned an IC50 of 21 nM. In turn, `Cc1cc(C(=O)N[C@H](C)c2cccc3ccccc23)cc(C)c1C(=O)N[C@@H](CNC(=O)c1cccs1)C(=O)O` [Example 333] yielded an IC50 in experiment [1] of 14 nM. `Cc1cc(C(=O)NCc2cccc(O)c2)cc(Cl)c1C(=O)N[C@@H](CNC(=O)c1ccsc1)C(=O)O` [Example 339, N-[2-chloro-4-[[[(3-hydroxyphenyl)methyl]amino]carbonyl]-6-methylbenzoyl]-3-[(thiophene-3-carbonyl)amino]-L-alanine] displayed an IC50 in experiment [1] of 3 nM.

As to `Cc1cc(C(=O)NCc2cccc(O)c2)ccc1C(=O)N[C@@H](CNC(=O)c1cccs1)C(=O)O` [Example 323], in experiment [1], the IC50 stood at 61 nM. The compound `O=C(NCc1cccc(O)c1)c1cc(Cl)c(C(=O)N[C@@H](CNC(=O)c2ccsc2)C(=O)O)c(Cl)c1` [Example 343, N-[2,6-dichloro-4-[[[(3-hydroxyphenyl)methyl]amino]carbonyl]benzoyl]-3-[(thiophene-3-carbonyl)amino]-L-alanine] yielded an IC50 in experiment [1] of 1.9 nM. Compound `O=C(CC1CCCCC1)NC[C@H](NC(=O)c1ccc(C(=O)NCc2cccc(O)c2)cc1Cl)C(=O)O` [Example 78] gave an IC50 in experiment [1] of 253 nM. Compound `Cc1cc(C(=O)NCc2cccc(O)c2)cc(Cl)c1C(=O)N[C@@H](CNC(=O)c1cc(F)cc(F)c1)C(=O)O` [Example 340, N-[2-chloro-4-[[[(3-hydroxyphenyl)methyl]amino]carbonyl]-6-methylbenzoyl]-3-[(3,5-difluorobenzoyl)amino]-L-alanine] yielded an IC50 in experiment [1] of 4 nM.

In turn, `Cc1cc(C(=O)NCc2cccc(O)c2)cc(C)c1C(=O)N[C@@H](CNC(=O)c1ccsc1)C(=O)O` [Example 336, N-[2,6-dimethyl-4-[[[(3-hydroxyphenyl)methyl]amino]carbonyl]benzoyl]-3-(thiophene-3-carbonyl)amino-L-alanine] yielded an IC50 in experiment [1] of 6.1 nM. The compound `O=C(NCc1cccc(O)c1)c1ccc(C(=O)N[C@@H](CNC(=O)c2ccc3c(c2)S(=O)(=O)c2ccccc2C3=O)C(=O)O)c(Cl)c1` [Example 192] came in with an IC50 in experiment [1] of 634 nM. The same measure, in the same setting: the result for `O=C(NCc1cccc(O)c1)c1ccc(C(=O)N[C@@H](CNC(=O)c2ccccc2)C(=O)O)c(Cl)c1` [Example 302, 3-benzoylamino-N-[2-chloro-4-[[[(3-hydroxyphenyl)methyl]amino]carbonyl]benzoyl]-L-alanine] reads 41 nM. With `Cc1cc(C(=O)NCc2cccc(O)c2)cc(C)c1C(=O)N[C@@H](CNC(=O)c1cccs1)C(=O)O` [Example 330], the IC50 in experiment [1] is 6.7 nM.
